Biological target: T1, SaCSD1 (Sonneratia alba, UniProt A0A0U1X631)
T1 construct: gene SOD1
T1 sequence (A0A0U1X631 1-152): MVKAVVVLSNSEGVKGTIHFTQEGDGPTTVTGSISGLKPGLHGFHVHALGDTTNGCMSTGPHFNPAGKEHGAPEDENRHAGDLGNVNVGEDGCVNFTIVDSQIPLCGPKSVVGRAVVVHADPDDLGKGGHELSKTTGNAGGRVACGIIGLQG
Experiment: SOD activity assay kit (WST-1 method)
Assay type: biochemical

[O]O [superoxide]
SOD activity assay kit (WST-1 method): Superoxide dismutase activity assay kit (WST-1 method) was used to detect the SOD activity
